The values below come from ChEMBL document CHEMBL1781907, “Expeditious synthesis and biological evaluation of novel 2,N6-disubstituted 1,2-dihydro-1,3,5-triazine-4,6-diamines as potential antimalarials” (Eur J Med Chem, 2011).

One data set relates to Plasmodium falciparum. Briefly: Ratio of cycloguanil IC50 to compound IC50 for chloroquine and cycloguanil-resistant Plasmodium falciparum FCR-3/Gambia. Format: functional.
Conditions: not given
As to `Cl.NC1=NC(c2ccccc2)NC(NCCCSc2ccc(Cl)cc2)=N1` (stereo unspecified), the “Ratio IC50” value was 5.
Take `Cl.NC1=NC(c2ccccc2)NC(NCCCCOc2ccc(Cl)cc2)=N1` (stereo unspecified): the “Ratio IC50” value worked out at 5.
Still for that read-out and setting: for `Cl.NC1=NC(c2ccco2)NC(NCCCOc2ccc(Cl)cc2)=N1` (stereo unspecified) the value was 5; for `Cl.NC1=NC(c2ccccc2)NC(NCCCCCOc2ccc(Cl)cc2)=N1` (stereo unspecified), 5.

Test system in a further data set: not listed separately
Briefly: Toxicity at human RBC assessed as haemolysis at 50 uM. Format: cell-based. As to conditions: erythrocyte.
Consider `Cl.NC1=NC(c2ccccc2)NC(NCCCOc2ccc(Cl)cc2Cl)=N1` (stereo unspecified), for which the Activity entry is reported as “Non-toxic”.
Turning to `Cl.NC1=NC(c2ccc([N+](=O)[O-])cc2)NC(NCCCOc2ccc(Cl)cc2)=N1` (stereo unspecified), the Activity result was “Non-toxic”.
For the compound `Cl.NC1=NC(c2ccc(C(F)(F)F)cc2)NC(NCCCOc2ccc(Cl)cc2)=N1` (stereo unspecified), the Activity entry is “Non-toxic”.
`Cl.NC1=NC(c2ccccc2)NC(NCCCOc2ccccc2F)=N1` (stereo unspecified): the Activity entry is listed as “Non-toxic”.
As for `Cl.NC1=NC(c2ccc(F)cc2)NC(NCCCOc2ccc(Cl)cc2)=N1` (stereo unspecified), the Activity result was “Non-toxic”.
In the case of `CN(C)c1ccc(C2N=C(N)N=C(NCCCOc3ccc(Cl)cc3)N2)cc1.Cl` (stereo unspecified), the Activity result is recorded as “Non-toxic”.
Regarding `COc1ccc(OCCCNC2=NC(N)=NC(c3ccccc3)N2)cc1.Cl` (stereo unspecified), the Activity result is given as “Non-toxic”.
Turning to `COc1ccc(C2N=C(N)N=C(NCCCOc3ccc(Cl)cc3)N2)cc1.Cl` (stereo unspecified), the Activity result was “Non-toxic”.
Take `Cl.NC1=NC2(CCCCC2)NC(NCCCOc2ccc(Cl)cc2)=N1`: the Activity result is “Non-toxic”.
As for `Cl.NC1=NC(c2ccccc2)NC(NCCCSc2ccc(Cl)cc2)=N1` (stereo unspecified), the Activity entry is listed as “Non-toxic”.
With `CC1(C)N=C(N)N=C(NCCCSc2ccc(Cl)cc2)N1.Cl`, the Activity result is given as “Non-toxic”.
On to `Cl.NC1=NC(c2ccccc2)NC(NCCCOc2ccc([N+](=O)[O-])cc2)=N1` (stereo unspecified), for which the Activity result is recorded as “Non-toxic”.
With `Cl.NC1=NC(c2ccccc2)NC(NCCCCOc2ccc(Cl)cc2)=N1` (stereo unspecified), the Activity result was “Non-toxic”.
With `CC1(C)N=C(N)N=C(NCCCOc2ccc(Cl)cc2)N1.Cl`, the Activity result is on record as “Non-toxic”.
Same read-out and setting: to `Cl.NC1=NC(c2ccccc2)NC(NCCCOc2ccccc2Cl)=N1` (stereo unspecified) belongs “Non-toxic”; to `Cl.NC1=NC(c2ccccc2)NC(NCCCOc2c(Cl)cc(Cl)cc2Cl)=N1` (stereo unspecified), “Non-toxic”.
Take `Cl.NC1=NC(C2CCCCC2)NC(NCCCOc2ccc(Cl)cc2)=N1` (stereo unspecified): the Activity entry is on record as “Non-toxic”.
As to `Cl.NC1=NC(c2ccc(F)cc2)NC(NCCc2ccc(Cl)c(Cl)c2)=N1` (stereo unspecified), the Activity entry is given as “Non-toxic”.
For the compound `Cl.NC1=NC(c2ccccc2Cl)NC(NCCCOc2ccc(Cl)cc2)=N1` (stereo unspecified), the Activity entry is “Non-toxic”.
Consider `CC1(C)N=C(N)N=C(NCCCCOc2ccc(Cl)cc2)N1.Cl`, for which the Activity result was “Non-toxic”.
`Cl.NC1=NC(c2ccco2)NC(NCCCOc2ccc(Cl)cc2)=N1` (stereo unspecified): the Activity result was “Non-toxic”.
The same measure, in the same setting: for `CC1(C)N=C(N)N=C(NCCc2ccc(Cl)cc2)N1.Cl` the value was “Non-toxic”; for `Cl.NC1=NC(c2ccccc2)NC(NCCCOc2ccc(Cl)c(Cl)c2)=N1` (stereo unspecified), “Non-toxic”; for `Cl.NC1=NC(c2ccccc2)NC(NCCCOc2ccc(Cl)cc2)=N1` (stereo unspecified), “Non-toxic”.
For `Cl.NC1=NC(c2ccc([N+](=O)[O-])cc2)NC(NCCc2ccc(Cl)c(Cl)c2)=N1` (stereo unspecified), the Activity entry is given as “Non-toxic”.
Consider `Cl.NC1=NC2(CCCCC2)NC(NCc2ccccc2)=N1`, for which the Activity entry is recorded as “Non-toxic”.
As to `Cl.NC1=NC(c2ccccc2)NC(NCCCCCOc2ccc(Cl)cc2)=N1` (stereo unspecified), the Activity entry is on record as “Non-toxic”.
On the same count and under the same terms, for `CC1(C)N=C(N)N=C(NCc2ccccc2)N1.Cl` the value was “Non-toxic”.

The next data set relates to Plasmodium falciparum. Briefly: Antimalarial activity against chloroquine and cycloguanil-resistant Plasmodium falciparum FCR-3/Gambia ring stage infected in human red blood cells assessed as inhibition of [3H]-hypoxanthine incorporation incubated 24 hrs before addition of [3H]-hypoxanthine measured after 24 hrs. Format: functional, cell-based.
Conditions: not given
The IC50 is the concentration that inhibits the measured activity by half. For `Cl.NC1=NC(c2ccccc2)NC(NCCCOc2ccc(Cl)cc2Cl)=N1` (stereo unspecified), the IC50 was determined as 4.52 µM.
Regarding `Cl.NC1=NC(c2ccc([N+](=O)[O-])cc2)NC(NCCCOc2ccc(Cl)cc2)=N1` (stereo unspecified), the 50% inhibitory concentration (IC50) was determined as 7.39 µM.
For the compound `Cl.NC1=NC(c2ccc(C(F)(F)F)cc2)NC(NCCCOc2ccc(Cl)cc2)=N1` (stereo unspecified), the IC50 came out at 5.54 µM.
Take `Cl.NC1=NC(c2ccccc2)NC(NCCCOc2ccccc2F)=N1` (stereo unspecified): the IC50 amounted to 10.8 µM.
For the compound `Cl.NC1=NC(c2ccc(F)cc2)NC(NCCCOc2ccc(Cl)cc2)=N1` (stereo unspecified), the half-inhibitory concentration (IC50) is 6.21 µM.
With `CN(C)c1ccc(C2N=C(N)N=C(NCCCOc3ccc(Cl)cc3)N2)cc1.Cl` (stereo unspecified), the half-inhibitory concentration (IC50) came to 44.8 µM.
With `COc1ccc(OCCCNC2=NC(N)=NC(c3ccccc3)N2)cc1.Cl` (stereo unspecified), the half-maximal inhibitory concentration (IC50) is 12.3 µM.
As to `COc1ccc(C2N=C(N)N=C(NCCCOc3ccc(Cl)cc3)N2)cc1.Cl` (stereo unspecified), the 50% inhibitory concentration (IC50) came out at 6.66 µM.
Same read-out and setting: to `Cl.NC1=NC2(CCCCC2)NC(NCCCOc2ccc(Cl)cc2)=N1` belongs 7.94 µM.
With `Cl.NC1=NC(c2ccccc2)NC(NCCCSc2ccc(Cl)cc2)=N1` (stereo unspecified), the IC50 turned out to be 1.3 µM.
Take `CC1(C)N=C(N)N=C(NCCCSc2ccc(Cl)cc2)N1.Cl`: the IC50 was 7.84 µM.
The same measure, in the same setting: for `Cl.NC1=NC(c2ccccc2)NC(NCCCOc2ccc([N+](=O)[O-])cc2)=N1` (stereo unspecified) the value was 3.87 µM; for `Cl.NC1=NC(c2ccccc2)NC(NCCCCOc2ccc(Cl)cc2)=N1` (stereo unspecified), 2.71 µM; for `CC1(C)N=C(N)N=C(NCCCOc2ccc(Cl)cc2)N1.Cl`, 11.3 µM.
On to `Cl.NC1=NC(c2ccccc2)NC(NCCCOc2ccccc2Cl)=N1` (stereo unspecified), for which the IC50 was determined as 4.53 µM.
For `Cl.NC1=NC(c2ccccc2)NC(NCCCOc2c(Cl)cc(Cl)cc2Cl)=N1` (stereo unspecified), the concentration for half-maximal inhibition (IC50) came out at 4.32 µM.
On the same count and under the same terms, to `Cl.NC1=NC(C2CCCCC2)NC(NCCCOc2ccc(Cl)cc2)=N1` (stereo unspecified) belongs 4.59 µM.
Regarding `Cl.NC1=NC(c2ccc(F)cc2)NC(NCCc2ccc(Cl)c(Cl)c2)=N1` (stereo unspecified), the IC50 was 8.41 µM.
Consider `Cl.NC1=NC(c2ccccc2Cl)NC(NCCCOc2ccc(Cl)cc2)=N1` (stereo unspecified), for which the IC50 was determined as 6.66 µM.
`CC1(C)N=C(N)N=C(NCCCCOc2ccc(Cl)cc2)N1.Cl`: the half-inhibitory concentration (IC50) was 7.2 µM.
On to `Cl.NC1=NC(c2ccco2)NC(NCCCOc2ccc(Cl)cc2)=N1` (stereo unspecified), for which the IC50 was 0.99 µM.
On to `CC1(C)N=C(N)N=C(N)N1c1ccc(Cl)cc1` [CYCLOGUANIL], for which the IC50 was determined as 5 µM.
As for `CC1(C)N=C(N)N=C(NCCc2ccc(Cl)cc2)N1.Cl`, the IC50 came out at 16.6 µM.
Take `Cl.NC1=NC(c2ccccc2)NC(NCCCOc2ccc(Cl)c(Cl)c2)=N1` (stereo unspecified): the IC50 amounted to 6.73 µM.
As for `Cl.NC1=NC(c2ccccc2)NC(NCCCOc2ccc(Cl)cc2)=N1` (stereo unspecified), the IC50 is 7.11 µM.
On to `Cl.NC1=NC(c2ccc([N+](=O)[O-])cc2)NC(NCCc2ccc(Cl)c(Cl)c2)=N1` (stereo unspecified), for which the concentration for half-maximal inhibition (IC50) came out at 11.1 µM.
Turning to `Cl.NC1=NC2(CCCCC2)NC(NCc2ccccc2)=N1`, the IC50 worked out at 9.89 µM.
As for `Cl.NC1=NC(c2ccccc2)NC(NCCCCCOc2ccc(Cl)cc2)=N1` (stereo unspecified), the concentration for half-maximal inhibition (IC50) was found to be 1.36 µM.
`CC1(C)N=C(N)N=C(NCc2ccccc2)N1.Cl`: the IC50 was determined as 49.8 µM.
